The source of these data is PubChem BioAssay (NCI).

SMILES strings stand for the structures.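 Each compound was tested at five concentrations against cells in 96-well plates for 48 hours. TGI denotes the concentration required for complete inhibition of growth.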

Test systems include NCI/ADR-RES ovarian; TK-10 renal; HOP-92 NSCLC; A498 renal; SF-295 CNS; SK-MEL-5 melanoma; PC-3 prostate; SNB-75 CNS; HCC-2998 colon; OVCAR-4 ovarian; DU-145 prostate; HOP-62 NSCLC; SNB-19 CNS; SN12C renal; K-562 leukemia; UACC-62 melanoma; NCI-H226 lung.
Common to all, as to experiment: inhibition of tumour cell growth, NCI panel, 48 h

`NC(=O)SCCC(N)C(=O)O` (stereo unspecified): the TGI in the assay with NCI/ADR-RES ovarian, in the assay on TK-10 renal, with HOP-92 NSCLC, in the assay with A498 renal, in the assay with SF-295 CNS and with SK-MEL-5 melanoma was above 100 µM throughout. In addition, the TGI with PC-3 prostate, with SNB-75 CNS, in the assay with HCC-2998 colon, in the assay with OVCAR-4 ovarian, in the assay with DU-145 prostate and in the assay with HOP-62 NSCLC was above 100 µM throughout. The TGI in the assay with SNB-19 CNS, in the assay on SN12C renal, with K-562 leukemia, in the assay on UACC-62 melanoma and in the assay on NCI-H226 lung was above 100 µM each time.
Consider `COC1(OC)C=CC2C1C1C=CC2C1(OC)OC` (stereo unspecified), for which the TGI in the assay with NCI/ADR-RES ovarian, in the assay on TK-10 renal, in the assay with HOP-92 NSCLC, in the assay on A498 renal, in the assay with SF-295 CNS and in the assay on SK-MEL-5 melanoma was above 100 µM throughout. Moreover, the TGI in the assay on PC-3 prostate, in the assay on SNB-75 CNS, in the assay on HCC-2998 colon, in the assay with OVCAR-4 ovarian, in the assay on DU-145 prostate and in the assay with HOP-62 NSCLC was above 100 µM in each case. Further, the TGI in the assay on SNB-19 CNS, in the assay with SN12C renal, in the assay on K-562 leukemia, in the assay on UACC-62 melanoma and in the assay on NCI-H226 lung was above 100 µM throughout.
`O=C1/C(=C/c2ccc(Oc3ccccc3)cc2)N=C(c2ccccc2)N1c1ccc(S(=O)(=O)Nc2nccs2)cc1`: the TGI in the assay with NCI/ADR-RES ovarian is 46.6 µM; in the assay on TK-10 renal, above 100 µM; in the assay with HOP-92 NSCLC, 99.7 µM; in the assay with A498 renal it was 82 µM; in the assay on SF-295 CNS it was 85.5 µM; in the assay on SK-MEL-5 melanoma, 49.8 µM. The TGI with PC-3 prostate is above 100 µM; in the assay with SNB-75 CNS, 58.1 µM; in the assay on HCC-2998 colon it was 6.87 µM; in the assay with OVCAR-4 ovarian, above 100 µM; in the assay with DU-145 prostate, above 100 µM; in the assay on HOP-62 NSCLC it was 79.4 µM. Besides, the TGI in the assay on SNB-19 CNS, in the assay with SN12C renal, in the assay on K-562 leukemia, with UACC-62 melanoma and with NCI-H226 lung was above 100 µM throughout.
`O=C(NC(Cc1cnc[nH]1)C(=O)N1CCCC1)C1CCCC1` (stereo unspecified): the TGI in the assay with NCI/ADR-RES ovarian, in the assay with TK-10 renal, with HOP-92 NSCLC, with A498 renal, in the assay with SF-295 CNS and in the assay with SK-MEL-5 melanoma was above 100 µM throughout. In addition, the TGI in the assay on PC-3 prostate, in the assay on SNB-75 CNS, with HCC-2998 colon, in the assay with OVCAR-4 ovarian, with DU-145 prostate and in the assay with HOP-62 NSCLC was above 100 µM each time. The TGI in the assay with SNB-19 CNS, in the assay with SN12C renal, with K-562 leukemia, with UACC-62 melanoma and in the assay with NCI-H226 lung was above 100 µM each time.
On to `O=C1NNC2NC(=O)C3(NN2C1=O)c1ccccc1-c1ccccc13` (stereo unspecified), for which the TGI in the assay with NCI/ADR-RES ovarian, in the assay on TK-10 renal, in the assay with HOP-92 NSCLC, in the assay with A498 renal, with SF-295 CNS and in the assay on SK-MEL-5 melanoma was above 100 µM in each case. Besides, the TGI with PC-3 prostate, in the assay on SNB-75 CNS, with HCC-2998 colon, in the assay on OVCAR-4 ovarian, in the assay with DU-145 prostate and in the assay on HOP-62 NSCLC was above 100 µM each time. Also, the TGI in the assay with SNB-19 CNS, in the assay on SN12C renal, in the assay on K-562 leukemia, in the assay with UACC-62 melanoma and in the assay on NCI-H226 lung was above 100 µM in each case.
Consider `CSc1nc(C)c(CCOC(C)=O)c(Cl)n1`, for which the TGI in the assay on NCI/ADR-RES ovarian, in the assay with TK-10 renal, with HOP-92 NSCLC, in the assay on A498 renal, in the assay with SF-295 CNS and with SK-MEL-5 melanoma was above 100 µM in each case. In addition, the TGI in the assay on PC-3 prostate, in the assay with SNB-75 CNS, with HCC-2998 colon, in the assay with OVCAR-4 ovarian, in the assay with DU-145 prostate and with HOP-62 NSCLC was above 100 µM each time. In addition, the TGI in the assay with SNB-19 CNS, with SN12C renal, with K-562 leukemia, in the assay with UACC-62 melanoma and in the assay with NCI-H226 lung was above 100 µM in each case.
In the case of `O=c1[nH]nc(-c2ccccc2)n1/N=C/c1ccccc1Cl`, the TGI is 67.9 µM with NCI/ADR-RES ovarian; above 100 µM in the assay on TK-10 renal; above 100 µM in the assay with HOP-92 NSCLC; above 100 µM in the assay on A498 renal; above 100 µM in the assay with SF-295 CNS; 36.1 µM in the assay on SK-MEL-5 melanoma. The TGI in the assay with PC-3 prostate is 57.6 µM; in the assay on SNB-75 CNS it was above 100 µM; in the assay with HCC-2998 colon, above 100 µM; in the assay with OVCAR-4 ovarian, above 100 µM; in the assay on DU-145 prostate it was above 100 µM; in the assay with HOP-62 NSCLC, above 100 µM. In addition, the TGI in the assay with SNB-19 CNS was above 100 µM; in the assay on SN12C renal, above 100 µM; with K-562 leukemia, above 100 µM; with UACC-62 melanoma, 46.5 µM; in the assay with NCI-H226 lung, above 100 µM.
Take `CC(=O)c1ccc2c(c1)CC1(C2)Cc2ccc3c(c2C1=O)CCC3` (stereo unspecified): the TGI in the assay with NCI/ADR-RES ovarian was 71.9 µM; in the assay on TK-10 renal, 64.2 µM; in the assay with HOP-92 NSCLC it was 41.2 µM; in the assay with A498 renal it was above 100 µM; in the assay on SF-295 CNS, above 100 µM; in the assay with SK-MEL-5 melanoma, 28.4 µM. Besides, the TGI with PC-3 prostate is above 100 µM; with SNB-75 CNS it was 91.3 µM; in the assay on HCC-2998 colon it was 37.8 µM; with OVCAR-4 ovarian it was above 100 µM; in the assay with DU-145 prostate it was above 100 µM; with HOP-62 NSCLC it was above 100 µM. For the same compound, the TGI was above 100 µM with SNB-19 CNS; above 100 µM in the assay on SN12C renal; above 100 µM in the assay with K-562 leukemia; 74.7 µM in the assay on UACC-62 melanoma; above 100 µM with NCI-H226 lung.
For `CC(=O)OC[C@@]12Cc3ccc(C)c(O)c3[C@]1(C)[C@@H](OC(C)=O)[C@]1(O)[C@H]([C@@H](OC(=O)c3ccccc3)[C@@H](C)[C@H]1OC(C)=O)[C@H]2OC(C)=O`, the TGI in the assay on NCI/ADR-RES ovarian, in the assay on TK-10 renal, in the assay on HOP-92 NSCLC, in the assay with A498 renal, with SF-295 CNS and in the assay with SK-MEL-5 melanoma was above 50 µM each time. Moreover, the TGI in the assay with PC-3 prostate, in the assay with SNB-75 CNS, in the assay on HCC-2998 colon, in the assay on OVCAR-4 ovarian, with DU-145 prostate and in the assay with HOP-62 NSCLC was above 50 µM throughout. Also, the TGI with SNB-19 CNS, in the assay with SN12C renal, with K-562 leukemia, in the assay on UACC-62 melanoma and in the assay on NCI-H226 lung was above 50 µM each time.
As for `COc1cc2c(cc1O)C1(Cc3ccc4c(c3C1=O)OCO4)N(C)CC2` (stereo unspecified), the TGI in the assay with NCI/ADR-RES ovarian, in the assay with TK-10 renal, in the assay on HOP-92 NSCLC, in the assay with A498 renal, in the assay with SF-295 CNS and in the assay with SK-MEL-5 melanoma was above 100 µM in each case. In addition, the TGI in the assay with PC-3 prostate, in the assay with SNB-75 CNS, in the assay with HCC-2998 colon, in the assay with OVCAR-4 ovarian, in the assay with DU-145 prostate and with HOP-62 NSCLC was above 100 µM in each case. Further, the TGI in the assay on SNB-19 CNS, in the assay with SN12C renal, with K-562 leukemia, with UACC-62 melanoma and with NCI-H226 lung was above 100 µM each time.
Regarding `COc1cc(/C=C\c2nnc(/C=C\c3ccc(O)c(OC)c3)s2)ccc1O`, the TGI with NCI/ADR-RES ovarian is 14.2 µM; in the assay on TK-10 renal it was above 51.2 µM; in the assay on HOP-92 NSCLC it was 42.2 µM; in the assay on A498 renal it was 6.4 µM; in the assay with SF-295 CNS it was 13.5 µM; with SK-MEL-5 melanoma it was 3.42 µM. Besides, the TGI with PC-3 prostate is above 64.3 µM; in the assay with SNB-75 CNS, 8.83 µM; in the assay with HCC-2998 colon, 12.9 µM; in the assay with OVCAR-4 ovarian it was 19.9 µM; with DU-145 prostate, 8.26 µM; in the assay on HOP-62 NSCLC, 42 µM. For the same compound, the TGI was above 82.1 µM with SNB-19 CNS; above 92.8 µM in the assay with SN12C renal; above 21.2 µM in the assay on K-562 leukemia; 18.8 µM with UACC-62 melanoma; 39 µM with NCI-H226 lung.
`O=c1cc(N=Nc2ccc(Cl)c(Cl)c2)[nH]c(=O)[nH]1`: the TGI was 3.93 µM in the assay on NCI/ADR-RES ovarian; 3.18 µM with TK-10 renal; 3.07 µM in the assay on HOP-92 NSCLC; 28.8 µM with A498 renal; 32.5 µM in the assay with SF-295 CNS; 10.2 µM with SK-MEL-5 melanoma. For the same compound, the TGI in the assay on PC-3 prostate came to 13.6 µM; in the assay with SNB-75 CNS, 22.5 µM; with HCC-2998 colon, 6.35 µM; with OVCAR-4 ovarian it was 8.08 µM; in the assay on DU-145 prostate it was 9.19 µM; in the assay on HOP-62 NSCLC, 19.2 µM. The TGI with SNB-19 CNS came to 26.6 µM; in the assay on SN12C renal it was 4.79 µM; with K-562 leukemia, 4.02 µM; in the assay with UACC-62 melanoma it was 4.61 µM; in the assay on NCI-H226 lung it was 33.2 µM.
For the compound `O=S1(=O)OCCOS(=O)(=O)C1Cc1cccc2ccccc12`, the TGI was 54.8 µM in the assay on NCI/ADR-RES ovarian; above 100 µM in the assay with TK-10 renal; 56.6 µM in the assay with HOP-92 NSCLC; 28.9 µM with A498 renal; above 100 µM in the assay with SF-295 CNS; 28.2 µM in the assay with SK-MEL-5 melanoma. Further, the TGI in the assay with PC-3 prostate is above 100 µM; in the assay on SNB-75 CNS it was above 100 µM; with HCC-2998 colon it was 43 µM; in the assay with OVCAR-4 ovarian, 47 µM; in the assay on DU-145 prostate, 31.1 µM; in the assay with HOP-62 NSCLC it was 49.1 µM. In addition, the TGI in the assay with SNB-19 CNS was 87.3 µM; with SN12C renal it was 62.2 µM; in the assay with K-562 leukemia, 38.2 µM; in the assay with UACC-62 melanoma it was 57.2 µM; in the assay on NCI-H226 lung, 36.3 µM.
